Where a name gives a salt, the structure may show the parent alone. Read-outs that look alike come from different tables or passages of the source.
Legend:
Type in all cases: cell-based
S. pyogenes 4 = test: In vitro antibacterial activity (MIC)
Method in brief: (§1)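 Broth microdilution in Mueller-Hinton broth, drug range 128 to 0.008 μg/ml; each well inoculated with 1.5 μl of a 10^-2 dilution of overnight culture. Sealed trays incubated overnight at 37° C. MIC is the lowest concentration showing no visible growth.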

S. pneumoniae 6301 = test: In vitro antibacterial activity (MIC)
Method in brief: as §1

E. cloacae 24 = test: In vitro antibacterial activity (MIC)
Method in brief: as §1

P. aeruginosa 503-56 = test: In vitro antibacterial activity (MIC)
Method in brief: as §1

P. mirabilis 190 = test: In vitro antibacterial activity (MIC)
Method in brief: as §1

C. freundii 8ASM = test: In vitro antibacterial activity (MIC); conditions: C. freundii 8ASM
Method in brief: as §1

E. cloacae P99 = test: In vitro antibacterial activity (MIC)
Method in brief: as §1

K. pneumoniae 5096 = test: In vitro antibacterial activity (MIC); conditions: K. pneumoniae 5096
Method in brief: as §1

S. pneumoniae 6302 = test: In vitro antibacterial activity (MIC)
Method in brief: as §1

S. marcescens S3 = test: In vitro antibacterial activity (MIC); conditions: S. marcescens S3
Method in brief: as §1

E. cloacae 5699 = test: In vitro antibacterial activity (MIC)
Method in brief: as §1

K. pneumoniae A = test: In vitro antibacterial activity (MIC); conditions: K. pneumoniae A
Method in brief: as §1

C. freundii CDC6 = test: In vitro antibacterial activity (MIC)
Method in brief: as §1

P. mirabilis 90 = test: In vitro antibacterial activity (MIC)
Method in brief: as §1

E. coli R-563 = test: In vitro antibacterial activity (MIC)
Method in brief: as §1

P. rettgeri ATCC 9250 = test: In vitro antibacterial activity (MIC)
Method in brief: as §1

S. pneumoniae SC = test: In vitro antibacterial activity (MIC)
Method in brief: as §1

P. mirabilis 503-1136 = test: In vitro antibacterial activity (MIC)
Method in brief: as §1

S. typhi P58A = test: In vitro antibacterial activity (MIC)
Method in brief: as §1

P. vulgaris ATCC 6380 = test: In vitro antibacterial activity (MIC)
Method in brief: as §1

P. aeruginosa 8710 = test: In vitro antibacterial activity (MIC); conditions: P. aeruginosa 8710
Method in brief: as §1

E. coli 257 = test: In vitro antibacterial activity (MIC, Mueller-Hinton broth)
Procedure: Drug dilutions are prepared in Mueller-Hinton broth ranging from 128 to 0.008 μg/ml. The diluted agents are dispensed in 100 μl amounts into the wells of a 96-well tray and used immediately or frozen at -10° to -70° C. until needed. Using an automated inoculator, 1.5 μl of a 10^-2 dilution of an overnight culture is added to each well of the tray. The tops of the trays are then sealed using transparent tape and incubated overnight at 37° C. The trays are examined with the aid of a viewer. The lowest concentration at which no growth is observed is considered to be the minimum inhibitory concentration (MIC).

[1] = Proteus mirabilis, 190, P. mirabilis 190, read-out: MIC
[2] = Citrobacter freundii, 8ASM, read-out: MIC
[3] = Klebsiella pneumoniae, read-out: MIC
[4] = Serratia marcescens, read-out: MIC
[5] = Enterobacter cloacae, 5699, E. cloacae 5699, read-out: MIC
[6] = Citrobacter freundii, CDC6, C. freundii CDC6, read-out: MIC
[7] = Proteus mirabilis, 90, P. mirabilis 90, read-out: MIC
[8] = Escherichia coli, R563, E. coli R-563, read-out: MIC
[9] = Providencia rettgeri, ATCC9250, P. rettgeri ATCC 9250, read-out: MIC
[10] = Proteus mirabilis, 5031136, P. mirabilis 503-1136, read-out: MIC
[11] = Proteus vulgaris, ATCC6380, P. vulgaris ATCC 6380, read-out: MIC
[12] = Pseudomonas aeruginosa, read-out: MIC
[13] = Streptococcus pyogenes, 4, S. pyogenes 4, read-out: MIC
[14] = Streptococcus pneumoniae, 6301, S. pneumoniae 6301, read-out: MIC
[15] = Enterobacter cloacae, 24, E. cloacae 24, read-out: MIC
[16] = Pseudomonas aeruginosa, 50356, P. aeruginosa 503-56, read-out: MIC
[17] = Enterobacter cloacae, P99, E. cloacae P99
[18] = Streptococcus pneumoniae, 6302, S. pneumoniae 6302, read-out: MIC
[19] = Streptococcus pneumoniae, read-out: MIC

CC1(C)S[C@@H]2[C@H](N=CN3CCCC(CCn4ccnc4)CC3)C(=O)N2[C@H]1C(=O)O.Cl.O (single isomer, unassigned) [D]
MIC (S. pyogenes 4; S. pyogenes 4): 1 µg/mL
MIC (S. pneumoniae 6301; S. pneumoniae 6301): 4 µg/mL
MIC (E. cloacae 24; E. cloacae 24): 0.5 µg/mL
MIC (P. aeruginosa 503-56; P. aeruginosa 503-56): > 128 µg/mL
MIC (P. mirabilis 190; P. mirabilis 190): 0.25 µg/mL
MIC (C. freundii 8ASM): 0.062 µg/mL
MIC (E. cloacae P99; E. cloacae P99): 0.125 µg/mL
MIC (K. pneumoniae 5096): > 128 µg/mL
MIC (S. pneumoniae 6302; S. pneumoniae 6302): 8 µg/mL
MIC (S. marcescens S3): 0.5 µg/mL
MIC (E. cloacae 5699; E. cloacae 5699): 0.5 µg/mL
MIC (K. pneumoniae A): 0.031 µg/mL
MIC (C. freundii CDC6; C. freundii CDC6): 0.25 µg/mL
MIC (P. mirabilis 90; P. mirabilis 90): 1 µg/mL
MIC (E. coli R-563; E. coli R-563): 0.125 µg/mL
MIC (P. rettgeri ATCC 9250; P. rettgeri ATCC 9250): 0.5 µg/mL
MIC (S. pneumoniae SC): 4 µg/mL
MIC (P. mirabilis 503-1136; P. mirabilis 503-1136): 16 µg/mL
MIC (S. typhi P58A): 0.125 µg/mL
MIC (P. vulgaris ATCC 6380; P. vulgaris ATCC 6380): 0.125 µg/mL
MIC (P. aeruginosa 8710): > 128 µg/mL
MIC (E. coli 257; E. coli 257): 0.125 µg/mL

CC1(C)S[C@@H]2[C@H](N=CN3CCC(CCn4ccnc4)CC3)C(=O)N2[C@H]1C(=O)O [B, [2S-2alpha,5alpha,6beta)]-6-[[[4-[2-(1H-imidazol-1-yl)ethyl]-1-piperidinyl]methylene]amino]-3,3-dimethyl-7-oxo-4-thia-1-azabicyclo[3.2.0]heptane-2-carboxylic acid hydrate hydrochloride]
MIC (S. pneumoniae 6301; Streptococcus pneumoniae, 6301): 4 µg/mL
MIC (E. cloacae 24; Enterobacter cloacae, 24): 2 µg/mL
MIC (P. mirabilis 190; [1]): 0.5 µg/mL
MIC (C. freundii 8ASM; [2]): 0.062 µg/mL
MIC (K. pneumoniae 5096; [3]): 0.25 µg/mL
MIC (S. marcescens S3; [4]): 0.5 µg/mL
MIC (E. cloacae 5699; [5]): 0.5 µg/mL
MIC (K. pneumoniae A; [3]): 0.062 µg/mL
MIC (C. freundii CDC6; [6]): 0.25 µg/mL
MIC (P. mirabilis 90; [7]): 2 µg/mL
MIC (E. coli R-563; [8]): 8 µg/mL
MIC (P. rettgeri ATCC 9250; [9]): 0.5 µg/mL
MIC (P. mirabilis 503-1136; [10]): 8 µg/mL
MIC (S. typhi P58A; Salmonella enterica, TYPHI): 0.062 µg/mL
MIC (P. vulgaris ATCC 6380; [11]): 0.5 µg/mL
MIC (P. aeruginosa 8710; [12]): > 128 µg/mL
MIC (E. coli 257; Escherichia coli, 257): 0.25 µg/mL

CC1(C)S[C@@H]2[C@H](N=CN3CCC(CCCn4ccnc4)CC3)C(=O)N2[C@H]1C(=O)O [C, [2S-(2alpha,5alpha,6beta)]-6-[[4-[3-(1H-imidazol-1-yl)propyl]-1-piperidinyl]methylene]amino]-3,3-dimethyl-7-oxo-4-thia-1-azabicyclo[3.2.0]heptane-2-carboxylic acid 1.2 mole hydrochloride monohydrate]
MIC (S. pyogenes 4; [13]): 64 µg/mL
MIC (S. pneumoniae 6301; [14]): 128 µg/mL
MIC (E. cloacae 24; [15]): 32 µg/mL
MIC (P. aeruginosa 503-56; [16]): > 128 µg/mL
MIC (P. mirabilis 190; [1]): 8 µg/mL
MIC (C. freundii 8ASM; [2]): 4 µg/mL
MIC (E. cloacae P99; [17]): 8 µg/mL
MIC (K. pneumoniae 5096; [3]): > 128 µg/mL
MIC (S. pneumoniae 6302; [18]): 128 µg/mL
MIC (S. marcescens S3; [4]): 16 µg/mL
MIC (E. cloacae 5699; [5]): 16 µg/mL
MIC (K. pneumoniae A; [3]): 4 µg/mL
MIC (C. freundii CDC6; [6]): 16 µg/mL
MIC (P. mirabilis 90; [7]): 32 µg/mL
MIC (E. coli R-563; [8]): 4 µg/mL
MIC (P. rettgeri ATCC 9250; [9]): 16 µg/mL
MIC (S. pneumoniae SC; [19]): 64 µg/mL
MIC (P. mirabilis 503-1136; [10]): 128 µg/mL
MIC (S. typhi P58A; Salmonella enterica, TYPHI): 8 µg/mL
MIC (P. vulgaris ATCC 6380; [11]): 4 µg/mL
MIC (P. aeruginosa 8710; [12]): > 128 µg/mL
MIC (E. coli 257; Escherichia coli, 257, E. coli 257, read-out: MIC): 2 µg/mL

CC1(C)S[C@@H]2[C@H](N=CN3CCC(c4ncc[nH]4)CC3)C(=O)N2[C@H]1C(=O)O [O, [2S-(2alpha,5alpha,6beta)]-6-[[[4-(1H-imidazol-2-yl-1-piperidinyl]methylene]amino]-3,3-dimethyl-7-oxo-4-thia-1-azabicyclo[3.2.0]heptane-2-carboxylic acid hydrochloride trihydrate]
MIC (S. pyogenes 4; [13]): 0.5 µg/mL
MIC (S. pneumoniae 6301; [14]): 1 µg/mL
MIC (E. cloacae 24; [15]): 1 µg/mL
MIC (P. aeruginosa 503-56; P. aeruginosa 503-56, hydrochloride trihydrate): > 128 µg/mL
MIC (P. aeruginosa 503-56; [16]): 128 µg/mL
MIC (P. mirabilis 190; [1]): 0.5 µg/mL
MIC (C. freundii 8ASM; [2]): 0.062 µg/mL
MIC (E. cloacae P99; [17]): 0.062 µg/mL
MIC (K. pneumoniae 5096; [3]): 64 µg/mL
MIC (S. pneumoniae 6302; [18]): 1 µg/mL
MIC (S. marcescens S3; [4]): 0.25 µg/mL
MIC (E. cloacae 5699; [5]): 0.5 µg/mL
MIC (K. pneumoniae A; [3]): 0.062 µg/mL
MIC (C. freundii CDC6; Citrobacter freundii, CDC6): 0.125 µg/mL
MIC (P. mirabilis 90; [7]): 0.5 µg/mL
MIC (E. coli R-563; Escherichia coli, R563): 0.125 µg/mL
MIC (P. rettgeri ATCC 9250; [9]): 0.5 µg/mL
MIC (S. pneumoniae SC; [19]): 1 µg/mL
MIC (S. typhi P58A; Salmonella enterica, TYPHI): 0.125 µg/mL
MIC (P. vulgaris ATCC 6380; [11]): 0.25 µg/mL
MIC (P. aeruginosa 8710; [12]): > 128 µg/mL
MIC (E. coli 257; Escherichia coli, 257): 0.125 µg/mL
